# ChEMBL document CHEMBL1201862, “PubChem BioAssay data set” (2004)
#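 Test compounds were applied to cells in 96-well plates for 48 hours at 5 doses. GI50 = concentration required for 50% inhibition of growth.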 Calls of active or inactive are those of the source. Cut-off read from the data, not from the text of the source: active = GI50 up to about 1.1 µM and inactive = higher.
# Legend:
# Assay in all cases: growth of human tumour cells (NCI), 48 h
# UACC-257 = tested on: UACC-257
# A549 = tested on: A549
# NCI-H460 = tested on: NCI-H460
# U-251 = tested on: U-251
# SF-295 = tested on: SF-295
# HCC 2998 = tested on: HCC 2998
# ACHN = tested on: ACHN
# RPMI-8226 = tested on: RPMI-8226
# NCI-H226 = tested on: NCI-H226
# HOP-92 = tested on: HOP-92
# UO-31 = tested on: UO-31
# COLO 205 = tested on: COLO 205
# CCRF-CEM = tested on: CCRF-CEM
# SN12C = tested on: SN12C
# SK-MEL-28 = tested on: SK-MEL-28
# HCT-15 = tested on: HCT-15
# HL-60 = tested on: HL-60
# HCT-116 = tested on: HCT-116
SMILES,GI50 (UACC-257),GI50 (A549),GI50 (NCI-H460),GI50 (U-251),GI50 (SF-295),GI50 (HCC 2998),GI50 (ACHN),GI50 (RPMI-8226),GI50 (NCI-H226),GI50 (HOP-92),GI50 (UO-31),GI50 (COLO 205),GI50 (CCRF-CEM),GI50 (SN12C),GI50 (SK-MEL-28),GI50 (HCT-15),GI50 (HL-60),GI50 (HCT-116)
CCC/C(=N\NC(=O)c1cc2ccccc2cc1O)C(CC)C(=O)CCC(=O)N(Cc1ccccc1)Cc1ccccc1 (configuration not stated),36.1 µM (inactive),63 µM (inactive),35.6 µM (inactive),57 µM (inactive),33.9 µM (inactive),67.5 µM (inactive),33.5 µM (inactive),45.8 µM (inactive),47.3 µM (inactive),33.3 µM (inactive),54 µM (inactive),28.5 µM (inactive),7.62 µM (inactive),63.2 µM (inactive),> 100 µM (inactive),38.4 µM,13 µM (inactive),41 µM (inactive)
CC(=O)NC1=C(NC(C)(C)C)C(=O)c2ccccc2C1=O,15.9 µM (inactive),48.1 µM (inactive),19.2 µM (inactive),37 µM (inactive),42.7 µM (inactive),> 100 µM (inactive),86.1 µM (inactive),11.7 µM (inactive),14.5 µM (inactive),19.1 µM (inactive),18.2 µM (inactive),83.4 µM (inactive),2.35 µM (inactive),18.2 µM (inactive),25.4 µM (inactive),17.3 µM,2.23 µM (inactive),28.7 µM (inactive)
Cc1cccc(-n2c(=S)[nH]c3c(sc(=O)n3-c3ccccc3C)c2=O)c1,> 100 µM (inactive),> 100 µM (inactive),> 100 µM (inactive),> 100 µM (inactive),> 100 µM (inactive),> 100 µM (inactive),> 100 µM (inactive),> 100 µM (inactive),> 100 µM (inactive),> 100 µM (inactive),> 100 µM (inactive),> 100 µM (inactive),> 100 µM (inactive),> 100 µM (inactive),> 100 µM (inactive),> 100 µM,> 100 µM (inactive),> 100 µM (inactive)
COc1ccc(/C(=N/O)C(c2ccc(OC)cc2)C2C(=O)Oc3ccccc32)cc1 (configuration not stated),34.7 µM (inactive),42 µM (inactive),71.3 µM (inactive),87.5 µM (inactive),3.13 µM (inactive),> 100 µM (inactive),70.6 µM (inactive),> 100 µM (inactive),37.2 µM (inactive),16.3 µM (inactive),35.5 µM (inactive),1.66 µM (inactive),> 100 µM (inactive),84.7 µM (inactive),78.2 µM (inactive),71.6 µM,52.5 µM (inactive),58.6 µM (inactive)
COc1cc2ccc1-c1cc(ccc1O)CC1c3cc4c(cc3CCN1C)Oc1c(OC)cc3c(c1O4)C(C2)N(C)CC3 (configuration not stated),1.72 µM (inactive),1.84 µM (inactive),1.75 µM (inactive),1.69 µM (inactive),1.81 µM (inactive),1.63 µM (inactive),2 µM (inactive),1.91 µM (inactive),2.22 µM (inactive),13.4 µM (inactive),1.8 µM (inactive),–,2.19 µM (inactive),2.08 µM (inactive),1.52 µM (inactive),1.68 µM,2.16 µM (inactive),1.46 µM (inactive)
CC(=O)/C=C\C(=O)NNS(=O)(=O)c1ccc(C)cc1,> 100 µM (inactive),> 100 µM (inactive),> 100 µM (inactive),> 100 µM (inactive),> 100 µM (inactive),> 100 µM (inactive),> 100 µM (inactive),> 100 µM (inactive),> 100 µM (inactive),> 100 µM (inactive),> 100 µM (inactive),> 100 µM (inactive),> 100 µM (inactive),> 100 µM (inactive),> 100 µM (inactive),> 100 µM,> 100 µM (inactive),> 100 µM (inactive)
CN(C)CC1(C)CC/C(=C\c2ccc(Cl)cc2)C1=O (configuration not stated),44.7 µM (inactive),66.8 µM (inactive),24.4 µM (inactive),40.1 µM (inactive),67.1 µM (inactive),40.5 µM (inactive),44.9 µM (inactive),19.1 µM (inactive),> 100 µM (inactive),59 µM (inactive),45.8 µM (inactive),17.4 µM (inactive),25.8 µM (inactive),51.3 µM (inactive),> 100 µM (inactive),34.4 µM,19.7 µM (inactive),34.3 µM (inactive)
Cc1c(N)nc(C(CC(N)=O)NCC(N)C(N)=O)nc1C(=O)NC(C(=O)NC(C)C(O)C(C)C(=O)NC(C(=O)NCCc1nc(-c2nc(C(=O)NCCCNCCCCN)cs2)cs1)C(C)O)C(OC1OC(CO)C(O)C(O)C1OC1OC(CO)C(O)C(OC(N)=O)C1O)c1c[nH]cn1 (configuration not stated),> 10 µM (inactive),4.81 µM (inactive),0.143 µM (active),> 10 µM (inactive),0.0731 µM (active),> 10 µM (inactive),0.00622 µM (active),> 10 µM (inactive),0.233 µM (active),0.0724 µM (active),2.36 µM (inactive),> 10 µM (inactive),> 10 µM (inactive),3.56 µM (inactive),> 10 µM (inactive),> 5.64 µM,> 10 µM (inactive),1.29 µM (inactive)
CC1(C)OC(=O)C(c2ccsc2)C(=O)O1,> 100 µM (inactive),> 100 µM (inactive),> 100 µM (inactive),> 100 µM (inactive),> 100 µM (inactive),> 100 µM (inactive),> 100 µM (inactive),> 100 µM (inactive),> 100 µM (inactive),> 100 µM (inactive),> 100 µM (inactive),> 100 µM (inactive),> 100 µM (inactive),> 100 µM (inactive),> 100 µM (inactive),> 100 µM,> 100 µM (inactive),> 100 µM (inactive)
O=c1[nH]cnc2[nH]nnc12,4.39 µM (inactive),84.9 µM (inactive),8.65 µM (inactive),34.6 µM (inactive),8.65 µM (inactive),18.1 µM (inactive),12 µM (inactive),0.685 µM (active),5.6 µM (inactive),2.19 µM (inactive),2.73 µM (inactive),47.1 µM (inactive),0.4 µM (active),1.93 µM (inactive),4.46 µM (inactive),11.6 µM,0.323 µM (active),2.1 µM (inactive)
CCc1ccccc1NC(=O)c1cccc([N+](=O)[O-])c1O,19.9 µM (inactive),24.8 µM (inactive),20.8 µM (inactive),23 µM (inactive),5.18 µM (inactive),24.7 µM (inactive),18.1 µM (inactive),5.41 µM (inactive),29 µM (inactive),14.4 µM (inactive),22.2 µM (inactive),17.2 µM (inactive),28.2 µM (inactive),31 µM (inactive),28.2 µM (inactive),25.8 µM,30.6 µM (inactive),24.2 µM (inactive)
